Test system: patients with Wilson disease (WD)
Assay: UWDRS Part III total score, functional subscale and individual items (neurological examination)
Type: in vivo, human
Details: for UWDRS Part III Functional Subscale (0-10) change from baseline, Mean (SD) / UWDRS Part III (0-175) change from baseline, Mean (SD): pooled Studies 301 and 201
Experimental: The UWDRS scoring system was developed specifically for the motor and movement disorders associated with chronic copper neurotoxicity in WD. Some individual items/subscales of the UWDRS Part III (arising from a chair, gait, handwriting, and speech) in addition to the UWDRS Parts I, II, and III overall, were assessed to further define the range of burdensome signs and symptoms of WD, so as to further understand the assessment of treatment effects on patients with WD. The UWDRS scores for consciousness (Part I) and abnormal neurologic examination findings (Part III) will be determined by a trained neurologist rater who is blinded to study treatment randomization. These scores were used to provide a rigorous dataset for evaluating changes from baseline.
Unified Wilson Disease Rating Scale (Parts I, II, and III): The UWDRS is a clinical rating scale designed to evaluate the neurological manifestations of WD that generally can be divided into 3 movement disorder syndromes: dystonic, ataxic, and Parkinsonian syndrome. The UWDRS comprises 3 parts: UWDRS Part I (level of consciousness, item 1), UWDRS Part II (a patient-reported review of daily activity items [disability], items 2 to 11), and UWDRS Part III (a detailed neurological examination, items 12 to 34).
The UWDRS Part I and Part III were assessed by a neurologist who is blinded to the treatment randomization, while UWDRS Part II may be reported to a non-blinded member of the study team by the patient, family member, or caregiver. The UWDRS has not been formally evaluated in adolescents. However, the components of Part I (level of consciousness), Part II (patient or caregiver-reported disability) and Part III (neurologic examination findings) were not fundamentally different between adults and adolescents. Patients aged 12 years and older were expected to be able to comply with UWDRS assessments.
Pooled results from all such participants will be integrated together into one timeline to allow analyses of changes in UWDRS, long-term copper control, and long-term safety laboratory data.
Endpoints (directly measured non-ceruloplasmin-bound copper [dNCC], UWDRS III (rater blinded) total and individual item scores, Clinical Global Impression-Improvement [CGI-I]) were evaluated at baseline (BL) and Week 48 (W48). Normalization (score decrease to 0), improvement (≥1 point decrease), stability (no change), or worsening (≥1 point increase) of total and individual UWDRS III item scores were evaluated at W48.

[1] = Week 24, Cohort 1, Study 201, n=8
[2] = Week 24, Cohort 1, Study 301, TTM n=90, SoC n=47
[3] = Week 24, Cohort 1, Total (Studies 301, 201, 205), n=98
[4] = Week 24, Study 301 TTM long term set
[5] = Week 48, Cohort 1, Study 201, n=9
[6] = Week 48, Cohort 1, Study 205, n=27
[7] = Week 48, Cohort 1, Study 301, TTM n=91, SoC n=49
[8] = Week 48, Cohort 1, Total (Studies 301, 201, 205), n=127

Substance: bis-choline tetrathiomolybdate [TTM]
- UWDRS Part III Functional Subscale (0-10) change from baseline, Mean (SD) (TTM exposure 144 weeks): −1.042 (1.7227)
- UWDRS-III change from baseline, Mean (SD) (TTM exposure 168 weeks, N=18): −18.08 (19.127)
- UWDRS Part III (0-175) change from baseline, Mean (SD) (TTM exposure 168 weeks): −18.08 (19.127)
- UWDRS Part III Functional Subscale (0-10) change from baseline, Mean (SD) (TTM exposure 168 weeks): −1.841 (2.1818)
- UWDRS-III change from baseline, Mean (SD) (TTM exposure 192 weeks, N=19): −12.65 (19.476)
- UWDRS Part III (0-175) change from baseline, Mean (SD) (TTM exposure 192 weeks): −12.65 (19.476)
- UWDRS Part III Functional Subscale (0-10) change from baseline, Mean (SD) (TTM exposure 192 weeks): −1.250 (2.1459)
- UWDRS-III change from baseline, Mean (SD) (TTM exposure 216 weeks, N=14): −16.17 (19.323)
- UWDRS Part III (0-175) change from baseline, Mean (SD) (TTM exposure 216 weeks): −16.17 (19.323)
- UWDRS Part III Functional Subscale (0-10) change from baseline, Mean (SD) (TTM exposure 216 weeks): −1.519 (2.3987)
- UWDRS-III change from baseline, Mean (SD) (TTM exposure 240 weeks, N=13): −11.48 (16.473)
- UWDRS Part III (0-175) change from baseline, Mean (SD) (TTM exposure 240 weeks): −11.48 (16.473)
- UWDRS Part III Functional Subscale (0-10) change from baseline, Mean (SD) (TTM exposure 240 weeks): −0.898 (1.3384)
- UWDRS-III change from baseline, Mean (SD) (TTM exposure 264 weeks, N=13): −14.00 (16.513)
- UWDRS Part III (0-175) change from baseline, Mean (SD) (TTM exposure 264 weeks): −14.00 (16.513)
- UWDRS Part III Functional Subscale (0-10) change from baseline, Mean (SD) (TTM exposure 264 weeks): −0.995 (1.2369)
- UWDRS Part III-gait (0-10), Difference at 48 weeks, LSM (TTM vs SoC, P 0.4325): −0.15
- UWDRS Part III-handwriting (0-4), Difference at 48 weeks, LSM (TTM vs SoC, P 0.5077): −0.1
- UWDRS Part III functional subscale (0-10), Difference at 48 weeks, LSM (TTM vs SoC, P 0.6191): −0.067
- UWDRS Part III-arising from chair (0-4), Difference at 48 weeks, LSM (TTM vs SoC, P 0.6869): 0.0
- UWDRS Part III-speech (0-4), Difference at 48 weeks, LSM (TTM vs SoC, P 0.7238): 0.0
- UWDRS Part III (0-175), Difference at 48 weeks, LSM (TTM vs SoC, P 0.9441): −0.09
- UWDRS III total, LSM difference (SE) TTM versus SoC (W0-W48, cohort 1 incomplete response or intolerant, p=0.7084): −0.53 (1.426)
- UWDRS-III, Change from Baseline, Max [1]: 1.0
- UWDRS-III, Change from Baseline, Mean [1]: −13.82
- UWDRS-III, Change from Baseline, Median [1]: −13.50
- UWDRS-III, Change from Baseline, Min [1]: −35.0,
- UWDRS-III, Change from Baseline, Q1 [1]: −19.80,
- UWDRS-III, Change from Baseline, Q3 [1]: −5.00
- UWDRS-III, Change from Baseline, Max [2]: 13.0
- UWDRS-III, Change from Baseline, Mean [2]: −0.86
- UWDRS-III, Change from Baseline, Median [2]: 0.00
- UWDRS-III, Change from Baseline, Min [2]: −18.7,
- UWDRS-III, Change from Baseline, Q1 [2]: −3.00,
- UWDRS-III, Change from Baseline, Q3 [2]: 1.00
- UWDRS-III, Change from Baseline, Max [3]: 13.0
- UWDRS-III, Change from Baseline, Mean [3]: −1.92
- UWDRS-III, Change from Baseline, Median [3]: −1.00
- UWDRS-III, Change from Baseline, Min [3]: −35.0,
- UWDRS-III, Change from Baseline, Q1 [3]: −4.00,
- UWDRS-III, Change from Baseline, Q3 [3]: 1.00
- UWDRS-III, Change from Baseline, LSM Diff (TTM vs. SoC) (Week 24, Cohort 1, TTM Total vs SoC Study 301, P-value 0.3884): −1.00
- UWDRS-III, Change from Baseline, LSM (Week 24, Cohort 1, TTM Total, SoC Study 301): −1.72
- UWDRS Part III (0-175) change from baseline, LSM [4]: −1.32
- UWDRS Part III (0-175) change from baseline, Mean [4]: −0.74
- UWDRS Part III functional subscale (0-10) change from baseline, LSM [4]: −0.158
- UWDRS Part III functional subscale (0-10) change from baseline, Mean [4]: −0.139
- UWDRS Part III-arising from chair (0-4) change from baseline, LSM [4]: −0.1
- UWDRS Part III-arising from chair (0-4) change from baseline, Mean [4]: 0.0
- UWDRS Part III-gait (0-4) change from baseline, LSM [4]: −0.21
- UWDRS Part III-gait (0-4) change from baseline, Mean [4]: −0.17
- UWDRS Part III-handwriting (0-4) change from baseline, LSM [4]: 0.0
- UWDRS Part III-handwriting (0-4) change from baseline, Mean [4]: −0.1
- UWDRS Part III-speech (0-4) change from baseline, LSM [4]: −0.1
- UWDRS Part III-speech (0-4) change from baseline, Mean [4]: −0.1
- UWDRS-III, Change from Baseline, Max [5]: 2.0
- UWDRS-III, Change from Baseline, Mean [5]: −19.44
- UWDRS-III, Change from Baseline, Median [5]: −13.00
- UWDRS-III, Change from Baseline, Min [5]: −48.0,
- UWDRS-III, Change from Baseline, Q1 [5]: −29.00,
- UWDRS-III, Change from Baseline, Q3 [5]: −9.00
- UWDRS-III, Change from Baseline, Max [6]: 6.0
- UWDRS-III, Change from Baseline, Mean [6]: −2.81
- UWDRS-III, Change from Baseline, Median [6]: −2.00
- UWDRS-III, Change from Baseline, Min [6]: −17.0,
- UWDRS-III, Change from Baseline, Q1 [6]: −6.00,
- UWDRS-III, Change from Baseline, Q3 [6]: 0.00
- UWDRS-III, Change from Baseline, Max [7]: 31.0
- UWDRS-III, Change from Baseline, Mean [7]: −2.24
- UWDRS-III, Change from Baseline, Median [7]: −1.00
- UWDRS-III, Change from Baseline, Min [7]: −28.0,
- UWDRS-III, Change from Baseline, Q1 [7]: −4.00,
- UWDRS-III, Change from Baseline, Q3 [7]: 0.00
- UWDRS-III, Change from Baseline, Max [8]: 31.0
- UWDRS-III, Change from Baseline, Mean [8]: −3.58
